Data published in paper PMC10080127, “Metabolic stability and metabolite profiling of emerging synthetic cathinones” (Frontiers in Pharmacology, 2023).

Tests used:
[1] = Metabolic stability (substrate depletion) in human liver microsome Phase I incubations; settings: for intrinsic clearance (CLint): HLM incubations, scaled with 45 mg microsomal protein/g liver and 26 g liver/kg b.w.; for half-life at 10 μM: human, human liver microsomes
[2] = Phase II (glucuronidation) metabolite generation in alamethicin-induced HLM with NADPH and UDPGA; format: in vitro ADME, human; settings: 2 h, LC-HRMS/MS
Description: For the generation of Phase II metabolites, alamethicine-induced HLM ([Fisher et al., 2000]) were used in the presence of Phase I and glucuronidation co-factor. Briefly, HLM (1 mg/mL) were preincubated for 15 min, in ice, with alamethicin (25 μg/mL) in 50 mM ABIC buffer at pH 7.4, for a total incubation volume of 200 μL. Following the addition of MgCl2 (2 mM; 1 μL) and selected cathinone (10 μM final concentration), the resulting solution was incubated for 5 min at 37°. NADPH (5 mM) and UDPGA (5 mM) were then added to start the Phase I and II reactions. Incubations were run in duplicate.
An in-house accurate mass library was first built, considering the metabolic pathways already known for other structurally similar cathinones, and a targeted screening was then carried out by performing extracted ion chromatograms (EIC), with a mass window of ±5 ppm, for the protonated/deprotonated molecules of the expected metabolites in the full scan spectra. Isotope cluster analysis was also used to identify chlorinated metabolites. All spectra corresponding to metabolites were then manually checked. The mass deviation from the accurate mass of the identified cathinone metabolites remained below 5 ppm for the precursor and below 10 ppm for product ions. Candidates present in control incubations and/or without MS/MS data were excluded. […] Metabolites were ranked based on their relative abundance over incubation time (Figures 2–9). The relative abundance was calculated by the ratio of the relative area of each metabolite and the sum of the relative areas obtained for all metabolites and for the respective parent cathinone.

[3] = set-up: method as in Wagmann et al., 2020; settings: ref Wagmann et al., 2020; cited from earlier work
[4] = pH 7.4, half-life (t1/2), HLM 1 mg/mL, cathinone 10 μM, NADPH, 37°C, pH 7.4
[5] = pH 7.4, clearance classification based on t1/2, HLM, scoring proposed by McNaney et al. (2008)

## CC(C)NC(C)C(=O)c1ccc(Cl)cc1 (stereo not shown) [4-CIC, 4′-chloro-N-isopropylcathinone]
[1]
  intrinsic clearance (CLint): 22 mLmin^−1 kg^−1
[1]; [4]
  half-life at 10 μM: 36 min

## CNC(C)C(=O)c1ccc(Cl)cc1 (stereo not shown) [4-CMC, 4′-chloromethcathinone]
[1]
  intrinsic clearance (CLint): 10 mLmin^−1 kg^−1
[1]; [5]
  half-life at 10 μM: > 60 min
[1]; [4]
  half-life at 10 μM: 78 min
[2]
  Phase II (glucuronide) metabolites identified: no Phase II metabolite was identified

## CCC(C(=O)c1ccc(C)cc1)N(C)C (stereo not shown) [4-MDMB, 4′-methyl-N,N-dimethylbufedrone]
[1]
  intrinsic clearance (CLint): 54 mLmin^−1 kg^−1
[1]; [5]
  half-life at 10 μM: < 20 min
[1]; [4]
  half-life at 10 μM: 15 min
[2]
  Phase II (glucuronide) metabolites identified: No Phase II metabolite was detected

## CCNC(CC)C(=O)c1ccc(C)cc1 (stereo not shown) [4-MNEB, 4′-methyl-N-ethylbufedrone]
[1]
  intrinsic clearance (CLint): 16 mLmin^−1 kg^−1
[1]; [4]
  half-life at 10 μM: 55 min
[2]
  Phase II (glucuronide) metabolites identified: No Phase II metabolites were identified

## CC(C)NC(C)C(=O)c1cccc(Cl)c1 (stereo not shown) [3-CIC, 3′-chloro-N-isopropylcathinone]
[1]
  intrinsic clearance (CLint): 34 mLmin^−1 kg^−1
[1]; [4]
  half-life at 10 μM: 24 min

## CNC(C)C(=O)c1cccc(Cl)c1 (stereo not shown) [3-CMC, 3′-chloromethcathinone]
[1]
  intrinsic clearance (CLint): 15 mLmin^−1 kg^−1
[1]; [4]
  half-life at 10 μM: 54 min
[2]
  Phase II (glucuronide) metabolites identified: No Phase II metabolites were identified

## CCCC(NCC)C(=O)c1ccc(C)cc1 (stereo not shown) [4-MEAP, 4′-methyl-N-ethylnorpentedrone]
[1]
  intrinsic clearance (CLint): 33 mLmin^−1 kg^−1
[1]; [4]
  half-life at 10 μM: 24 min
[2]
  Phase II (glucuronide) metabolites identified: no glucuronide metabolite was identified

## CCNC(C)C(=O)c1ccc(Cl)cc1 (stereo not shown) [4-CEC, 4-chloroethcathinone]
[3]
  half-life (t1/2) reported: 105 min

## CCCC(C(=O)c1ccc(C)cc1)N(C)C (stereo not shown) [4-MDMP, 4′-methyl-N,N-dimethylpentedrone]
[1]
  intrinsic clearance (CLint): 18 mLmin^−1 kg^−1
[1]; [4]
  half-life at 10 μM: 46 min
[2]
  Phase II (glucuronide) metabolites identified: No Phase II metabolites were identified
